Measured values: patent US5025036A, “Catechol carboxylic acids” (Hoffmann-La Roche Inc., priority 1989, dated 1991)
Counter-ions that a name gives are not always drawn.

How the values were obtained:
ear edema = test: Mouse Ear Edema Test (In Vivo), arachidonic acid; parameters: species or system CD-1 male mice; details: topical, 1 h, at 1 mg topically
Description: Invest. Dermatol. 80:48 (1983) and Hames, Opas and Bonney, "Arachidonic Acid Metabolites in Mouse Ear Edema" Advances in Inflammation Research, 11:57 (1986). […] CD-1 male mice weighing 15 to 25 g were employed, and they were designated as follows: (1) Control Group, in which no arachidonic acid or test compound was to be applied, (2) Arachidonic Acid-Treated Group, in which no test compound was to be applied, and (3) Treated Group, in which the test compound was to be applied first, followed by the application of arachidonic acid. In the case of the Group (3) animals, the test compound, dissolved in acetone, was applied to the dorsal surface of the right ear of the mouse with a 25-microliter pipettor, with the dose of the test compound being varied. After 0.5 hours in some cases and 4 hours in others, the arachidonic acid was topically applied in the same manner as above to the pretreated ear areas. In each case of arachidonic acid application, an amount of 0.5 mg dissolved in 25 microliters of acetone was used. After 1 hour, the mice were sacrificed by carbon dioxide inhalation. A 6 mm-diameter standard biopsy punch was used to obtain a uniform tissue sample from the ear of each mouse so treated, and the tissue samples were weighed to the nearest 0.1 mg. The percent inhibition of ear edema formation was calculated as follows: [formula]

[1] = biological target: T1, Δ^5 -lipoxygenase from rat basophilic leukemia (RBL-1) cells (Rattus norvegicus, UniProt P12527); test: In vitro test for Δ^5-lipoxygenase inhibitors (5-HETE radioimmunoassay); type: biochemical; details: for IC50: RBL-1 5-LO, 5-HETE formation, read-out: Inhib. of Δ^5 Lipoxygenase IC50
T1 construct: The isolated cytosolic fraction was stored in liquid N2 for up to 8 weeks without loss of 5-LO enzyme activity; endogenous in cells; host or cells: RBL-1 cells (ATCC CRL 1378), 113,000×g supernatant (cytosol)
T1 sequence (P12527 1-673): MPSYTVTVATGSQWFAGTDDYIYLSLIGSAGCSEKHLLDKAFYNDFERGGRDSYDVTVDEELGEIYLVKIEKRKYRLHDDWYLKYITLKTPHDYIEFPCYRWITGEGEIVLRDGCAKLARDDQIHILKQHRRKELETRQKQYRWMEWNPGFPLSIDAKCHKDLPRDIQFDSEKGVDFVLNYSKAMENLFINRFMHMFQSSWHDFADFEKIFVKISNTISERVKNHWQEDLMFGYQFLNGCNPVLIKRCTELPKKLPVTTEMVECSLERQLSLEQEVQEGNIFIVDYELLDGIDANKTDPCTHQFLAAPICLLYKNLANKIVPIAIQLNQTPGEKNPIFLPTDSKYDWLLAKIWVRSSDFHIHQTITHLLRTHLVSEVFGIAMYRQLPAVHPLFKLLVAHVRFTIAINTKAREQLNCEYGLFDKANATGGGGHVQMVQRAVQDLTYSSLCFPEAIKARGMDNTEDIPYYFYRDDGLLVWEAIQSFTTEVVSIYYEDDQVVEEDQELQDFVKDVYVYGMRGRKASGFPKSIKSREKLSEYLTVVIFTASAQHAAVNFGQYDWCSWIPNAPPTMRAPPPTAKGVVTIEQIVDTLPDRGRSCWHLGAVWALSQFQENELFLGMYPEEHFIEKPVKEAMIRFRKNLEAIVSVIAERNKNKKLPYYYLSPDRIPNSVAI
Experimental: RBL-1 cells (CRL 1378) were obtained from the American Type Culture Collection, Rockville, MD. DMEM and glutamine were purchased from Flow Labs, McLean, Va. FBS (Gibco, Grand Island, N.Y.) was heat-inactivated for 1 hour at 56° C. Reagents for protein determinations were obtained from Biorad, Rockville Center, N.Y. Arachidonic acid (approx. 99%), ATP (disodium salt), BHT, dextran (clinical grade), tetrasodium EDTA, gelatin, gentamycin sulfate solution, reduced glutathione, 1 M HEPES buffer, indomethacin, NaCl, reduced NADPH, Trizma 7.2, and Trizma 8.5 were purchased from Sigma Chemical, St. Louis, Mo. CaCL2 dihydrate, Norit A charcoal, and citric acid monohydrate were obtained from Fisher Scientific, Pittsburgh, Pa. […] A synthetic 5-HETE standard was supplied by Dr. M. Rosenberger, Dept. of Medicinal Chemistry, Hoffmann La-Roche, Nutley, N.J.; [see Corey, E. J., and Hashimoto, S. (1981) Tet. […] Approximately 7-9 days after thawing, RBL-1 cells growing in log phase were seeded at a density of 7500 viable cells/ml in a closed 89-liter spinner flask. […] RBL-1 cells were harvested by centrifugation at 4° C. at 1500×g for 10 minutes and were washed 3 times with ice cold 0.05M tris-hCl, pH 7.2, tetrasodium EDTA (buffer 1). The cells were washed last in 0.05M Tris-HCl containing 14 μM indomethacin, 1 mM glutathione, 1.5 mM NaCl, and 1 mM tetrasodium EDTA (buffer 2), resuspended at a density of 5×108'/ml approximately 10 ml) and disrupted manually at 4° C. using a 40 ml Dounce (type A pestle) homogenizer. After 5 minutes of homogenization, 95% cell lysis was confirmed by phase contrast microscopy. The broken cells were diluted 1:2 with buffer 2 and centrifuged at 12,380×g for 10 minutes at 4° C. to pellet cellular debris and granules. The 12,380×g supernatant was centrifuged at 113,000×g for 60 minutes to pellet microsomes. The high-speed supernatant (5.9±0.48 mg/ml protein) was frozen immediately in 1 ml aliquots using a dry ice/acetone bath. The isolated cytosolic fraction was stored in liquid N2 for up to 8 weeks without loss of 5-LO enzyme activity. Compounds were dissolved at 25 mM concentration in DMSO, then diluted to final concentrations using 95% ethanol. For a typical enzyme assay, the partially purified 5-LO preparation was preincubated with drug or vehicle for 10 minutes at 30° C. The assay tubes were then transferred at a 37° C. water bath where they received arachidonic acid (8.25 μM final concentration) to initiate 5-LO activity. […] The samples were immediately cooled on ice and neutralized by dilution with 0.05M Tris-HCl, pH 8.5, which contained 25 mg/1 BHT. A boiled cytosol control was placed at the end of each assay to emasure non-enzymatic oxidation of arachidonic acid. […] Under the assay conditions described, the 5-LO catalyzed the conversion of arachidonic acid to 5-HPETE which, as a consequence of peroxidase activity, was reduced to 5-HETE. A specific radioimmunoassay was employed to quantitate the amount (pmoles) of 5-HETE formed during the enzyme reaction. To prepare the immunogen, Dr. M. Rosenberger (Dept. of Medicinal Chemistry) converted the racemic 5-HETE lactone (Corey, E. J., and Hashimoto, S. (1981) Tet. Letters, 22, 299-302) to its hydrazine derivative. The hydrazide was conjugated to thiolated Keyhole Limpet Hemocyanin (Young, […]., and Rokach, J. (1982) Prostaglandins 23, 603-613) using N-ethyl-maleimide as previously described for LTB4 by (Young, R., N, Zomboni, R. and Rokach, J. 91983) Prostaglandins, 26, 605-613). New Zealand White rabbits received multiple intradermal injections on their backs with […] conjugate emulsified in complete Freund's adjuvant. A schedule of injections reported by Salmon (Salmon, J. A. (1978) Prostaglandins, 15, 383-397) was followed. After the monthly i.p. booster injections, blood was obtained from the marginal ear vein 5-7 days later and assessed for antibody titer. […]

Carrageenan pleurisy = test: Carrageenan Pleurisy Test (In Vivo); parameters: species or system male Lewis rats; details: Rattus norvegicus, po; at 100 mg/kg p.o; read-out: Rat Carrageenan Pleurisy % Inhib. of Exudate Volume
Experimental: The animals utilized in these studies were male Lewis rats (Charles River Breeding Laboratories) weighing between 230-250 g. […] At 5 or 24 hours after CG injection, the rats were killed by decapitation, exsanguinated, and the pleural cavity exposed by cutting the ribs on both sides of the sternum. The exudate fluid was removed from the pleural cavity with disposable plastic pipettes and its volume quantitated. The pleural cavity was then washed once with phosphate buffered saline containing fetal bovine serum (1:1) and the washings combined with the exudate. The total number of cells in the pleural cavity was quantitated using a Coulter Counter (Model ZM) adjusted to exclude any contaminating RBC. (Published in "Plant Flavonoids in Biology & Medicine: Biochemical, Pharmacological and Structure-Activity Relationships" p. 231-242 (1986) Alan R. Liss, Inc.)

| inhibition at 0.1 µM ([1]; read-out: Inhib. of Δ^5 Lipoxygenase, % inhibition at 0.1 μM) [%] | IC50 [1] [nM] | SMILES | inhibition in vivo at 1 mg (ear edema) [%] | inhibition in vivo at 100 mg/kg (Carrageenan pleurisy) [%] |
| --- | --- | --- | --- | --- |
| 95 | – | CCCc1c(OCCCCCCCCc2cccc(O)c2O)ccc(C(C)=O)c1O [1-[2-hydroxy-4-[8-(2,3-dihydroxyphenyl)octyloxy]-3-propylphenyl]ethanone] | 0 | 0 |
| – | 670 | CCCc1c(OCCCCCCc2cccc(O)c2O)ccc(C(=O)OCCN(CC)CC)c1O [4-[6-(2,3-Dihydroxyphenyl)hexyloxy]-2-hydroxy-3-propylbenzoic acid [2-(diethylamino)ethyl]ester hydrochloride] | 48 | 42 |
| – | 460 | CCCc1cc(C(=O)O)cc(CCC)c1OCCCCCCc1cccc(O)c1O [4-[6-(2,3-Dihydroxyphenyl)hexyloxy]-3,5-dipropylbenzoic acid] | 59 | – |
| – | 20 | CCCc1cc(C(=O)O)ccc1OCCCCCCc1cccc(O)c1O [4-[6-(2,3-Dihydroxyphenyl)hexyloxy]-3-propylbenzoic acid] | 52 | 0 |
